Experimental data as given in patent EP0462621A2, “Use of particular compounds for manufacture of pharmaceutical formulations for treatment against various parasites, mycoplasmas, other indications and other infections” (Prendergast, Patrick Thomas, priority 1990, dated 1991).

Legend:
[1] = test system: T lymphocytes; experiment: Lymphocyte blastogenesis assay, T lymphocytes (PHA); format: cell-based, human; conditions: 100 - 1 µM (Figs. 11 and 12)
Procedure: (§1) T and B lymphocytes from normal human donors were incubated for 30 minutes at various dose levels of the compounds indicated. The lymphocytes were added in triplicate wells in gentamicin and phytohemagglutinin (PHA) (a T cell mitogen), pokeweed mitogen (PWM) (a B cell mitogen) and allogeneic mononuclear cells (mixed leukocyte cultures; MLC) or media containing the above additives. The lymphocyte blastogenesis assay is described in detail below.
(§2) The data are represented as the mean of the three replicates. The results are presented in Charts la(e) (i) and la(e) (ii) (Figs. 1 and 2). […] A reduction of both T lymphocytes' abilities to proliferate was obtained when 100 u.M or greater concentrations of IPA was added to the cell cultures. Proliferative activity of T lymphocytes by 25% at the 30 u.M concentration of IPA in the experiment.
(§3) • 1. Mononuclear cells are separated from whole blood by differential centrifugation using a synthetic separation medium, or are thawed from a cryopreserved preparation. The cells are washed and resuspended in media (RPMI - 1640, L-Glutamine 2mM, Herpes Buffer 25mM, Gentamicin 50 ug/ml, Human AB Serum-heat inactivated (56°, 30°) 20%). • 2. A viable cell count is determined. • 3. Cell concentration is adjusted to 2 x 10^6 /ml in media. • 4. The cell suspension is added to wells of a 96-well flat bottom plate in 0.1 ml aliquots (2 x 10^5 cells). • 5. The selected mitogens and/or antigens (in media without serum) are added to the cells in the wells also in 0.1 ml aliquots. • 6. The cultures are incubated for 3-7 days (depending upon the mitogen or antigen) at 37° C in a humidified 5% C02 atmosphere. • 7. Six to eight hours before termination of cultures 0.05 ml (1 µCi) of ^3HTdR sp. act 6.7 Ci/mM (20 µCi/ml stock) is added to each well. • 8. At termination of cultures the cells are harvested onto strips of scintillation-grade fibreglass paper using a multiple sample harvester. • 9. Perforated disks from the fibreglass paper of the harvested cultures are placed each into scintillation vials to which is then added 5 ml of toluene based scintillation cocktail. • 10. The vials are counted in a liquid scintillation counter for one minute where the amount of incorporated ^3HTdR is determined.
(§4) net CPM = xCPM of mitogen/antigen cultures - xCPM of media cultures.

[2] = test system: HIV-I; experiment: Experiment la(a): macrophage cells, HIV-I, p24 antigen capture radio-immunoassay; format: cell-based; conditions: for TITER: control titer 100000; for wells positive for HIV-I p24, LOG VIRUS DILUTION -1 / wells positive for HIV-I p24, LOG VIRUS DILUTION -2 / wells positive for HIV-I p24, LOG VIRUS DILUTION -3 / wells positive for HIV-I p24, LOG VIRUS DILUTION -4 / wells positive for HIV-I p24, LOG VIRUS DILUTION -5 / wells positive for HIV-I p24, LOG VIRUS DILUTION -6: duplicate runs
Procedure: Fresh macrophage cultures were obtained by incubation of mononuclear cells obtained from a leukopak directly in the wells of a microtiter plate having 6 wells per row. After removal of non-adherent cells, each row of the adherent macrophages was infected with 10-fold serial dilutions of HIV-I, with the use of polybrene to enhance uptake of the virus. After one to two hours, the virus inoculum was removed and replaced with fresh normal growth medium. The fresh medium for each row contained a particular concentration of AZT, dideoxy cytidine (ddC), or compound la, as indicated by the left-hand column of Table la(a). The first row of wells acted as a control, and to it was added fresh medium containing none of the three drugs. Medium levels were maintained for two to four weeks to allow replication of the virus to take place, with at least one complete fluid change to remove residual virus inoculum. The contents of each well were then tested for the level of HIV p24 antigen present using a commercially available antigen capture kit employing a radio-immunoassay which can detect as little as 10'^9gm of p24 present in a sample. The above procedure was done in duplicate runs.
The results were interpreted as follows: 2/2, for example, means that both the corresponding wells of both runs were positive for HIV-I p24, while 0/2 means that neither well was positive. The titers are given in the next to last column; where 1/2 wells was positive, an intermediate value was given to the titer that is half way between the two dilutions when calculated on a logarithmic scale. 3 µM IPA was positive in both wells at a dilution of 1/10,000 and in neither well at 1/100,000. Thus, one half log interval between 10^4 and 10^5 is 10^4.5, or 30,000.

[3] = test system: B lymphocytes; experiment: Lymphocyte blastogenesis assay, B lymphocytes (PWM); format: cell-based, human
Procedure: as §1, §2, §3, §4

[4] = test system: T.b. brucei, T.b. gambiense and T.b. rhodesiense; experiment: Cultivated bloodstream trypomastigote (TRY) in-vitro screen; format: cell-based
Description: Culture systems developed in the last decade have used mammalian cell feeder layers to support the growth of dividing populations of bloodstream trypomastigotes of T. brucei spp. Some of these systems have been used in chemotherapy studies, including; (1) bovine fibroblast culture - T. brucei models to test some standard and experimental compounds, (2) murine bone marrow culture - T.b. gambiense model to screen inosine analogues and platinum and hypolipidemic compounds, and (3) Microtus embryonic fibroblast culture (MEF) - T.b. rhodesiense model to test standard and experimental drugs. These systems give a good indication of in-vivo activity (see Table 3). They measure activity against dividing cells rather than specific macromolecular synthesis pathways and can be readily established in micro-titre plates. The MEF and bone marrow cell feeder layers can be used to grow a range of strains of T. brucei spp., offering the possibility of examining variations in drug susceptibility and resistance between strains. The presence of a feeder layer, however, limits the opportunities for the automation of these systems.
(§5) In-vitro and in-vivo models were used to test activities of a selection of many compounds. Those activities are summarized in Tables 1-3, showing variation between systems and species. Activities measured in the MP mo and HM mo models have shown the best correlation with results obtained in hamster and mouse models.

[5] = test system: T.b. brucei, T.b. gambiense and T.b. rhodesiense; experiment: Isolated bloodstream trypomastigote (TRY) in-vitro screen; format: cell-based
Procedure: (§6) Primary screening for new trypanocides has made extensive use of rodent systems, in which host survival time is a simple indicator of drug activity. In-vitro screens have used a variety of trypomastigote types (see Table 3, below). […] Most early in-vitro screens employed a short test in which bloodstream trypomastigotes were isolated from an infected rodent and maintained for up to 24 h in a simple drug-containing media. Two significant modifications of this technique include maintaining isolated bloodstream trypomastigotes in drug-containing media for 3-4 hours at 37° C in micro-titre plates and their subsequent viability assessed by the uptake of radiolabelled precursors or motility and infectivity to mice.
In-vitro studies on isolated bloodstream trypomastigotes were also used in the rational biochemical approaches towards the chemotherapy of T. brucei infections involving inhibitors of carbohydrate catabolism salicyl hydroxamic acid plus glycerol), of polyamine synthesis (methylgyoxal bis-guanylhydrazone and - DFMO), and of surface coat glycoprotein synthesis (Tunicamycin). In these studies, activity of the compounds are shown in-vitro and in-vivo, whereas the sensitivity of isolated bloodstream trypomastigotes to toxic oxygen radicals generated by naphthoquinones was not shown by the parasites in mice. The activity of the standard anti-trypanosomals-melarsoprol, pentamidine and suramin and tested compounds according to the present invention in in-vitro systems is shown in Table 3.
as §5

[6] = test system: T.b. brucei, T.b. gambiense and T.b. rhodesiense; experiment: African trypanosomiasis mouse model, in-vivo
Procedure: as §6, §5

[7] = test system: T.b. brucei, T.b. gambiense and T.b. rhodesiense; experiment: Procyclic trypomastigote (TRY) in-vitro screen; format: cell-based; also: key: - no/poor activity,; + fair/moderate activity,; ++ good/excellent activity
Procedure: as §6, §5

## Nc1ccn([C@H]2CC[C@@H](CO)O2)c(=O)n1 [ddC, dideoxycytidine, reference compound]
[1]
  reduction in T lymphocyte function: 10 - 25%
[2]; Human immunodeficiency virus 1, Macrophage, drug 10 μM, titer relative to control, read-out: PERCENT OF CONTROL
  activity at 10 µM: 10%
[2]; Human immunodeficiency virus 1, Macrophage, drug 100 μM, titer relative to control, read-out: PERCENT OF CONTROL
  activity at 100 µM: 3%
[2]; drug 10 μM
  TITER: 10000
  wells positive for HIV-I p24, LOG VIRUS DILUTION -1: 2/2
  wells positive for HIV-I p24, LOG VIRUS DILUTION -2: 2/2
  wells positive for HIV-I p24, LOG VIRUS DILUTION -3: 2/2
  wells positive for HIV-I p24, LOG VIRUS DILUTION -4: 1/2
  wells positive for HIV-I p24, LOG VIRUS DILUTION -5: 0/2
  wells positive for HIV-I p24, LOG VIRUS DILUTION -6: 0/2
[2]; drug 100 μM
  TITER: 3000
  wells positive for HIV-I p24, LOG VIRUS DILUTION -1: 2/2
  wells positive for HIV-I p24, LOG VIRUS DILUTION -2: 2/2
  wells positive for HIV-I p24, LOG VIRUS DILUTION -3: 2/2
  wells positive for HIV-I p24, LOG VIRUS DILUTION -4: 0/2
  wells positive for HIV-I p24, LOG VIRUS DILUTION -5: 0/2
  wells positive for HIV-I p24, LOG VIRUS DILUTION -6: 0/2
[3]; 1 µM
  reduction in B lymphocyte proliferative responses: 20 -35%
[3]; 1000 u.M
  reduction in B lymphocyte proliferative responses: 80 to 85%

## Nc1nc(N)nc(Nc2ccc([As]3SCC(CO)S3)cc2)n1 (centres unmarked) [Melarsoprol, melarsoprol, reference compound]
[4]
  activity, cultivated bloodstream TRY: + +
[5]
  activity, isolated bloodstream TRY: + +
[6]
  activity, mouse model: + +

## Cc1ccc(C(=O)Nc2ccc(S(=O)(=O)O)c3cc(S(=O)(=O)O)cc(S(=O)(=O)O)c23)cc1NC(=O)c1cccc(NC(=O)Nc2cccc(C(=O)Nc3cc(C(=O)Nc4ccc(S(=O)(=O)O)c5cc(S(=O)(=O)O)cc(S(=O)(=O)O)c45)ccc3C)c2)c1 [Suramin, suramin, reference compound]
[4]
  activity, cultivated bloodstream TRY: +
[5]
  activity, isolated bloodstream TRY: -,+
[6]
  activity, mouse model: + +
[7]
  activity, procyclic TRY: -
